The assay deals with KB. As to the kind of experiment: Cytotoxicity against human KB cells. Type of assay: functional, cell-based.

We go through one compound from ChEMBL document CHEMBL1147333, “Brominated indole alkaloids from the marine tunicate Pseudodistoma arborescens” (J Nat Prod, 1993).

In brackets after ≈: the same amount, converted by molar mass.

Usually IC50 stands for the concentration needed to halve the response being measured. A low value points to greater potency in that assay. The compound `CN1CCc2c3n(c4cc(Br)ccc24)[C@H](O)CCC[C@@H]31` [ARBORESCIDINE D] displayed an IC50 of 3 µg/mL (≈ 8.95 µM).
